Legend:
[1] = MTT viability assay in HepG2 cells; type: cell-based; conditions: human, % of control, read-out: Viability (% ± SEM)
Procedure: To investigate the lack of hepatotoxicity of HBK-10 at 25 µM concentration, we used HepG2 cells. Viability was measured using 3-(4,5-dimethyl-thiazol-2-yl)-2,5-diphenyltetrazolium (MTT) assay. We chose 25 µM since such concentration was used in metabolic stability studies.
To investigate the preliminary hepatic safety of HBK-10 at the concentration used in metabolic stability study, a human hepatocellular carcinoma cell line—HepG2 (HB-8065TM, ATCC, Manassas, VA, USA) was used in the study. HepG2 cells were cultured in standard conditions (37 °C, 5% CO2, 95% humidity) in appropriate culture medium (according to manufacturer procedure), supplemented with 10% fetal bovine serum (FBS, Gibco, Thermo Fisher Scientific, Waltham, MA, USA) and antibiotics (1% streptomycin/penicillin mixture; Sigma-Aldrich, Steinheim, Germany). Cells were seeded in 96-well plates at density of 1 × 10^4 per well. After 24 h cells were treated with two doses of HBK-10 (5 and 25 µM, solvent—PBS) and incubated for additional 24 h. Following the incubation cells viability was measured with MTT assay. For this purpose, MTT reagent (3-(4,5-dimethylthiazol-2-yl)-2,5-diphenyltetrazolium bromide) (Sigma Aldrich, Steinheim, Germany) was added to each well at the concentration 0.5 mg/mL. After 4 h incubation at 37 °C, the medium was aspirated, and formazan crystals produced in the cells were dissolved in DMSO. Then the absorbance of solution was determined at 570 nm (A570) on plate reader (Spectra iD3 Max, Molecular Devices; San Jose, CA, USA). Viability (% of control) was determined by dividing A570 of experimental wells by of A570 of control wells × 100%.

Rotarod test in mice = type: in vivo, mouse; conditions: mouse, in vivo; ip, log-probit method
Procedure: (§1) This experimental procedure was described in detail in our earlier studies. Briefly, mice were trained on the rotarod apparatus (May Commat RR0711, Turkey; rod diameter: 2 cm) every day for 3 consecutive days. During each training session, mice were placed for 3 min on the rotating rod (24 rpm, constant speed) with an unlimited number of trials. The experiment was performed 24 h after the last training session. On the test day, mice were injected with HBK-10, and 30 min after the administration tested on the rotarod (24 rpm, constant speed). Motor impairment was regarded as the inability to remain on the rotating rod for 60 s and was expressed as the % of animals that fell off the rotating rod.

mice [2] = assay: Rotarod test in mice; type: in vivo, mouse
Procedure: as §1

human 5-HT7 receptor = molecular target: T1, human 5-HT7 receptor (Homo sapiens, UniProt P34969); assay: Radioligand binding, [3H]-5-CT, CHO-K1 membranes; conditions: CHO-K1 cells, mean ± SEM, read-out: Serotonergic pKi 5-HT7 (converted)
T1 construct: expressed in transfected cells; host or cells: CHO-K1 (membranes)
T1 sequence (P34969 whole entry): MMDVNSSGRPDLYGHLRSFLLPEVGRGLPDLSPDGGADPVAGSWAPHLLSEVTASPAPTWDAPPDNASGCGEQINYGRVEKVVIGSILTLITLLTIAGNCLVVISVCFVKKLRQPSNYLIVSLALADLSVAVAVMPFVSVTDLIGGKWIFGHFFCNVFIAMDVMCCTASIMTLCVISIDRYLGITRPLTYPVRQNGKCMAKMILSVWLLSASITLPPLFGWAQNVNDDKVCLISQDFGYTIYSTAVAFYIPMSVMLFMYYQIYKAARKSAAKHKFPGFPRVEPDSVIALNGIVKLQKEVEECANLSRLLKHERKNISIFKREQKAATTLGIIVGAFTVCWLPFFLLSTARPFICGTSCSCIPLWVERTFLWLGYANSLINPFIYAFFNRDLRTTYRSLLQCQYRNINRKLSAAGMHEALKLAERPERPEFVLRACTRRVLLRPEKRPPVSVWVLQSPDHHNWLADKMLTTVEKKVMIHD
Procedure: (§2) Radioligand binding was performed on membranes from CHO-K1 cells stably transfected with the human 5-HT1A, 5-HT2A, 5-HT6, or 5-HT7 receptors. […] Binding experiments were conducted in 96-well microplates, and the reaction mix included the solution of the test compound, radioligand, and diluted membranes or the tissue suspension.
(§3) The reaction was terminated by rapid filtration through GF/B or GF/C filter mate presoaked with 0.3% polyethyleneimine for 30 min. Ten rapid washes with 200 µl 50 mM Tris buffer (4 °C, pH 7.4) were performed using an automated harvester system Harvester-96 MACH III FM (Tomtec). […] Radioactivity was counted in the MicroBeta2 scintillation counter (PerkinElmer) at approximately 30% efficiency. […] A single assay was performed with each compound concentrations in duplicate, and the whole assay was repeated in a three independent experiments.

Chimney test in mice = type: in vivo, mouse; conditions: mouse, in vivo; ip, log-probit method
Procedure: (§4) The chimney test was performed as previously described. The mice were trained before the test, and only those animals able to get out of the chimney within 1 min, were used at the experimental stage. The selected mice were placed in a 25 cm long and 2.5 cm in diameter horizontally located tube, which was reversed so that the mice could leave it only by climbing up backward until they reached the other end. Motor impairment was indicated by the inability of the mice to perform the test within 60 s. The number of animals unable to climb backward within 60 s was recorded, and TD50 values were calculated.

mice [3] = assay: Chimney test in mice; type: in vivo, mouse
Procedure: as §4

human 5-HT1A receptor = molecular target: T2, human 5-HT1A receptor (Homo sapiens, UniProt P08908); assay: Radioligand binding, [3H]8-OH-DPAT, CHO-K1 membranes; conditions: CHO-K1 cells, mean ± SEM, read-out: Serotonergic pKi 5-HT1A (converted)
T2 construct: expressed in transfected cells; host or cells: CHO-K1 (membranes)
T2 sequence (P08908 1-422): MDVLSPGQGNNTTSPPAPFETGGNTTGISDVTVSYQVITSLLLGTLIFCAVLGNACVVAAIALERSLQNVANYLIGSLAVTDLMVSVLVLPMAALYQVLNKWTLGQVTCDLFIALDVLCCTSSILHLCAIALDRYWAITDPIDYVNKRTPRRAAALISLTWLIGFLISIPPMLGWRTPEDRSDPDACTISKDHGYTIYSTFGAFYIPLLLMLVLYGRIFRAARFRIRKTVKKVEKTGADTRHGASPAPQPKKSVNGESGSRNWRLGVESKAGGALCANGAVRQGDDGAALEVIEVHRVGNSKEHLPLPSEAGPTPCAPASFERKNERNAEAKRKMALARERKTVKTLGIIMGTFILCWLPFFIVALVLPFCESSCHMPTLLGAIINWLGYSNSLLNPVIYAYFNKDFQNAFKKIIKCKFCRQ
Procedure: as §2, §3

human 5-HT6 receptor = molecular target: T3, human 5-HT6 receptor (Homo sapiens, UniProt P50406); assay: Radioligand binding, [3H]-LSD, CHO-K1 membranes; conditions: CHO-K1 cells, mean ± SEM, read-out: Serotonergic pKi 5-HT6 (converted)
T3 construct: expressed in transfected cells; host or cells: CHO-K1 (membranes)
T3 sequence (P50406 whole entry): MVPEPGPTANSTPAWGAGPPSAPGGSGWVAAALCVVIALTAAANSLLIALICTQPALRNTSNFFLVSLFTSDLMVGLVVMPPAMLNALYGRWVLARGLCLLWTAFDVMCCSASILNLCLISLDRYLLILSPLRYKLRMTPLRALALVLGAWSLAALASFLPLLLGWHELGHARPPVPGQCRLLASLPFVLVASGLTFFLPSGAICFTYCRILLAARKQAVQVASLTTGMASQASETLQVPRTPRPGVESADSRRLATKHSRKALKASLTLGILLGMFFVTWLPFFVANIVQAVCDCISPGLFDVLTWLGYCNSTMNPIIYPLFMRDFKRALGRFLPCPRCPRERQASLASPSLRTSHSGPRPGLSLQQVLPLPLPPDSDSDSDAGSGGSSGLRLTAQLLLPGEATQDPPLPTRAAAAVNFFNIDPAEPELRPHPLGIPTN
Procedure: as §2, §3

[4] = test system: corticosterone-treated mice; assay: Locomotor activity in corticosterone-treated mice; type: in vivo, mouse; conditions: 4 min
Procedure: The locomotor activity of mice was measured as previously described. We used photoresistor actometers (Ugo Basile, Italy) connected to a counter for the recording of light-beam interruptions. Mice were placed individually in cages for 30 min, and the number of crossings of the light beams was recorded as the locomotor activity for 4 min.
Mice were injected with corticosterone (sc, 20 mg/kg) at random times during the light phase for 21 days. The dose and route of administration of corticosterone were based on our previous study. Control mice received saline containing 0.1% dimethyl sulfoxide (DMSO) and 0.1% Tween (sc). For the next 21 days, 30 min before the corticosterone injection, mice were injected with saline, HBK-10 (0.625 or 1.25 mg/kg), or fluoxetine (15 mg/kg) (ip). Twenty-four hours after the last injection, animals were tested in the forced swim test and locomotor activity test (Figure 8).

For `CCC(CN1CCN(c2ccccc2OC)CC1)NCCCOc1c(C)cccc1C.Cl.Cl` (stereo not drawn) [HBK-10, N-(3-(2,6-dimethylphenoxy)propyl)-1-(4-(2-methoxyphenyl)piperazin-1-yl)butan-2-amine dihydrochloride], the viability at 24 h, 1 µM ([1]; HBK-10 1 μM) was 102 ± 3.3%, the viability at 24 h, 5 µM ([1]; HBK-10 5 μM) was 109 ± 0.9% and the viability at 24 h, 25 µM ([1]; HBK-10 25 μM) was 99 ± 2.4%. The TD50 at 30 min (Rotarod test in mice) was 44.3 mg/kg, the “% of Animals That Fell from Rotating Rod” value (mice [2]; 40 mg/kg ip) was 29% and the “% of Animals That Fell from Rotating Rod” value (mice [2]; 45 mg/kg ip) was 63%. The “% of Animals That Fell from Rotating Rod” value (mice [2]; 60 mg/kg ip) was 86%, the Ki (human 5-HT7 receptor) was 6.31 µM and the TD50 at 30 min (Chimney test in mice) was 21.7 mg/kg. For the same molecule, the “% of Animals That Did Not Climb out the Chimney” value (mice [3]; 10 mg/kg ip) was 20%, the “% of Animals That Did Not Climb out the Chimney” value (mice [3]; 20 mg/kg ip) was 40% and the “% of Animals That Did Not Climb out the Chimney” value (mice [3]; 30 mg/kg ip) was 64%. The “% of Animals That Did Not Climb out the Chimney” value (mice [3]; 40 mg/kg ip) was 87%, the “% of Animals That Did Not Climb out the Chimney” value (mice [3]; 60 mg/kg ip) was 90% and the Ki (human 5-HT1A receptor) was 0.00513 µM. The Ki (human 5-HT6 receptor) was 3.72 µM, the “Number of Crossings ± SEM” value ([4]; 0.625 mg/kg ip chronic) was 431.1 ± 47.92 and the “Number of Crossings ± SEM” value ([4]; 1.25 mg/kg ip chronic) was 453.9 ± 41.27.
